The values below are quoted from earlier work in patent publication US8198305B2, “1,2-benzisoxazol-3-yl compounds” (Concert Pharmaceuticals Inc., priority 2007, dated 2012).

For this series the following is noted: phase III clinical trial.

Where two headings read alike, the source gives them in different places.

For `COc1cc(C(C)=O)ccc1OCCCN1CCC(c2noc3cc(F)ccc23)CC1` [iloperidone, 1-[4-[3-[4-(6-fluoro-1,2-benzisoxazol-3-yl)piperidin-1-yl]propoxy]-3-methoxyphenyl]ethanone], the QTc prolongation runs as follows: (good metabolizers of iloperidone) 10.4 ms; (poor metabolizers of iloperidone) 15.0 ms.
